Each block holds one compound with its values, some of them ahead of it.
Key:
[1] = in vivo; settings: mouse, ip, 150 mg/kg
[2] = test system: HCT-116; assay: animal or person; settings: Mus musculus, HCT-116, ip, read-out: TGI
[3] = test system: HCT-116; assay: animal or person; settings: Mus musculus, HCT-116, ip, 96 h, read-out: TGI
[4] = test system: COLO 205; assay: animal or person; settings: Mus musculus, COLO 205, ip, 96 h, read-out: TGI
[5] = target: Mast/stem cell growth factor receptor Kit (Homo sapiens) (UniProt P10721); assay: Inhibition of KIT (unknown origin) relative to control; settings: concentration not given here
Sequence of Mast/stem cell growth factor receptor Kit (Homo sapiens) (P10721 whole entry): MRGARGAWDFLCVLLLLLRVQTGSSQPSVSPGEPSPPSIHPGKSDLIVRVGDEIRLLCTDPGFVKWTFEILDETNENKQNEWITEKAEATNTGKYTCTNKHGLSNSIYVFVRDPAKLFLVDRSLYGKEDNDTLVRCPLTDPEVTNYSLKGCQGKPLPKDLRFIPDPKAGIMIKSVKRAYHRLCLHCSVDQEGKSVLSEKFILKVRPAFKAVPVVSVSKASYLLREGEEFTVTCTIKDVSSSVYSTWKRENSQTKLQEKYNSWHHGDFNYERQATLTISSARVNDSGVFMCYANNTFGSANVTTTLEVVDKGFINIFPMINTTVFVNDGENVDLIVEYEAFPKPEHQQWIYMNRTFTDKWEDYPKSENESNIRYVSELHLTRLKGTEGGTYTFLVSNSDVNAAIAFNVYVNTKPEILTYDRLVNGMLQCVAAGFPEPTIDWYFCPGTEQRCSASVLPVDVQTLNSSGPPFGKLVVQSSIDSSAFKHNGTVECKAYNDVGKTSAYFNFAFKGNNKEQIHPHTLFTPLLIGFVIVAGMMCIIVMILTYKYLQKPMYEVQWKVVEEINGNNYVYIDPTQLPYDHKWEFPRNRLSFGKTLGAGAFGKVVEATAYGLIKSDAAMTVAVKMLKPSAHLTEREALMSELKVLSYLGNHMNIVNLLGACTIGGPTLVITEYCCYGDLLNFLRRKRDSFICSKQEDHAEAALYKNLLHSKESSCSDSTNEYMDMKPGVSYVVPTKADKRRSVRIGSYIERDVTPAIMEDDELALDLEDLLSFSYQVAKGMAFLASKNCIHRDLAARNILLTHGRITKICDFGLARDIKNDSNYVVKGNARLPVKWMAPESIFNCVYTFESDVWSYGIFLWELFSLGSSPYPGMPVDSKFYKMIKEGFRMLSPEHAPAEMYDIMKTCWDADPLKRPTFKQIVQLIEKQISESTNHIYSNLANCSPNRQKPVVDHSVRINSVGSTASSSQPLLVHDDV

[6] = target: Focal adhesion kinase 1 (Homo sapiens) (UniProt Q05397); assay: Inhibition of FAK (unknown origin) relative to control; settings: concentration not given here
Sequence of Focal adhesion kinase 1 (Homo sapiens) (Q05397 2-1052 limits assumed): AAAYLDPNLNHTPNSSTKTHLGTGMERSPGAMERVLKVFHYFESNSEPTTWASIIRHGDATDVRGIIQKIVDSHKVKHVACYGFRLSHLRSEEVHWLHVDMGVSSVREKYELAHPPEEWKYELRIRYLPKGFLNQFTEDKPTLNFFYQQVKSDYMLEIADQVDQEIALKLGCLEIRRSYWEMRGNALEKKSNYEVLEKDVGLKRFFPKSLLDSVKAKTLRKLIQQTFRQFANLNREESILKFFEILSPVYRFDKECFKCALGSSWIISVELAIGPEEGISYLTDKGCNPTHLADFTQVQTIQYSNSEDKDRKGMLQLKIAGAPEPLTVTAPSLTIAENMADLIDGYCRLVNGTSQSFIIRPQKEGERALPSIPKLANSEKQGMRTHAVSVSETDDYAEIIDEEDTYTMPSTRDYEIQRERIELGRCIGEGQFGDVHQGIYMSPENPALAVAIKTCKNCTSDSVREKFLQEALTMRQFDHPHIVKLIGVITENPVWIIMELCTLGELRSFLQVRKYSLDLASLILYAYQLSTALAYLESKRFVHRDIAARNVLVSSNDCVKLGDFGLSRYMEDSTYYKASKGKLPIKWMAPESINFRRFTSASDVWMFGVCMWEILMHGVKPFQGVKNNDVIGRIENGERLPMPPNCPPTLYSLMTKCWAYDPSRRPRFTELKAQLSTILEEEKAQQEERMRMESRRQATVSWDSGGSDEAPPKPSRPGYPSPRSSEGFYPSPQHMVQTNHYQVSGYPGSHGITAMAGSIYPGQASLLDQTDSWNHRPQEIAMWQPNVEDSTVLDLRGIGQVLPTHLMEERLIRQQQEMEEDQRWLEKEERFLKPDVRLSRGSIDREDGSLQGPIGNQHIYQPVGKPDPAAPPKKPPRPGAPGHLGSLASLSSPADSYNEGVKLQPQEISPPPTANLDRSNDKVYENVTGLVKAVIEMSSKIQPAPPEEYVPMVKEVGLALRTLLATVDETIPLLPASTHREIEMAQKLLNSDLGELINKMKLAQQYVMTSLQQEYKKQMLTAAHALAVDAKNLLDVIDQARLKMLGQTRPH

[7] = target: Mitogen-activated protein kinase 8 (Homo sapiens) (UniProt P45983); assay: Inhibition of JNK1 (unknown origin) relative to control; settings: concentration not given here
Sequence of Mitogen-activated protein kinase 8 (Homo sapiens) (P45983 whole entry): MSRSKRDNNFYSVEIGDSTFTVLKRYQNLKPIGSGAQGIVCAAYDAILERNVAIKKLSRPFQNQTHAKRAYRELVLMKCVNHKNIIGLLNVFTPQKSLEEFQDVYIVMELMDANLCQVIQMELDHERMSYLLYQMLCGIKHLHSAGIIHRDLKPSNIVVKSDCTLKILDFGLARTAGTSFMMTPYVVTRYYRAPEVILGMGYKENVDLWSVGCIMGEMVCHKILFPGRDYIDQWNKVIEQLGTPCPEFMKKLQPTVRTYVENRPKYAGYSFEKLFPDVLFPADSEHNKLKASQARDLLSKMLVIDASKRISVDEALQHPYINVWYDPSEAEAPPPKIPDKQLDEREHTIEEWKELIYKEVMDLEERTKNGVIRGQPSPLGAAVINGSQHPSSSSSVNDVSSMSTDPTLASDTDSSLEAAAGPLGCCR

[8] = target: Mitogen-activated protein kinase 9 (Homo sapiens) (UniProt P45984); assay: Inhibition of JNK2 (unknown origin) relative to control; settings: concentration not given here
Sequence of Mitogen-activated protein kinase 9 (Homo sapiens) (P45984 whole entry, looked up): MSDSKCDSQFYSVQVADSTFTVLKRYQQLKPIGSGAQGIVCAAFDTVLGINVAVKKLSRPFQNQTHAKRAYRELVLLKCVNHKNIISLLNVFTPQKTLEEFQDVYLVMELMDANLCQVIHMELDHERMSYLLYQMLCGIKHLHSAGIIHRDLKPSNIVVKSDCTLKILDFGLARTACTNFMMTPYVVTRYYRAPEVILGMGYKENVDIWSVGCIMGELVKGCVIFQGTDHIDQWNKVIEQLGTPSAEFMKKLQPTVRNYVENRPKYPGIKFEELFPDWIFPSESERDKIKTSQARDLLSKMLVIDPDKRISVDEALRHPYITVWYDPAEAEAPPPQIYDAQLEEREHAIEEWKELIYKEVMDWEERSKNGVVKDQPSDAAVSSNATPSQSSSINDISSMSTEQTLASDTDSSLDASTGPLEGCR

[9] = test system: A549; assay: animal or person; settings: Mus musculus, A549, po, read-out: TGI
[10] = target: T1, Dual specificity protein kinase TTK (Homo sapiens, UniProt P33981); assay: Inhibition of MPS1 (510 to 857 residues) catalytic domain (unknown origin) expressed in Escherichia coli after 15 mins by mass-spectrometry analysis
T1 sequence (P33981 whole entry): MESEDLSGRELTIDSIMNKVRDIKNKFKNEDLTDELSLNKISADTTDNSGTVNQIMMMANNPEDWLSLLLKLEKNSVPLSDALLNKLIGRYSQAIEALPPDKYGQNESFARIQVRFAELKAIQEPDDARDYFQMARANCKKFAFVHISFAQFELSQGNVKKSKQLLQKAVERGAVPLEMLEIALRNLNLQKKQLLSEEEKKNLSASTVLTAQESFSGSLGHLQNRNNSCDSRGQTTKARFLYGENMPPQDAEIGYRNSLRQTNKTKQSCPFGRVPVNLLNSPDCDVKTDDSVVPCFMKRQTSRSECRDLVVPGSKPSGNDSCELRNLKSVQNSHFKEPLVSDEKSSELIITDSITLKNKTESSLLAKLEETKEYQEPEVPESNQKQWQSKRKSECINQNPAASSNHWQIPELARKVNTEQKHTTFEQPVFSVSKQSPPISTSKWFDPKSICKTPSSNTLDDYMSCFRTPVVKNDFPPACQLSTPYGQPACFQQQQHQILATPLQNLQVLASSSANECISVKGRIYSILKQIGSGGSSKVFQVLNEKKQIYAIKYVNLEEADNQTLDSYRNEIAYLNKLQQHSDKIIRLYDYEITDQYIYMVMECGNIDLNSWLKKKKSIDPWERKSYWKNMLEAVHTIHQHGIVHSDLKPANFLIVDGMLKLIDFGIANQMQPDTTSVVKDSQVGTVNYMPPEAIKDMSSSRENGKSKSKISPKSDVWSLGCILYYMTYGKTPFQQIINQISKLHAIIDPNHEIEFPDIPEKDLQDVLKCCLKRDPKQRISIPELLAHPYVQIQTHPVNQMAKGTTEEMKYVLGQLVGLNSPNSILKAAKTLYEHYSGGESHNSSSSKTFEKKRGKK

[11] = target: T1, Dual specificity protein kinase TTK; assay: Inhibition of MPS1 (unknown origin)
[12] = target: T1, Dual specificity protein kinase TTK; assay: Inhibition of glioblastoma patient derived MPS1
[13] = test system: Mus musculus; assay: In vivo inhibition of MPS1 in mouse xenografted with human HCT116 cells at 100 mg/kg, po after 24 hrs by LC-MS analysis relative to control; assay type: functional; settings: HCT-116, po
[14] = Cmax in mouse at 5 mg/kg, iv; assay type: ADME, organism-based; design: dose 5 mg/kg, route intravenous; settings: in vivo
[15] = Cmax in mouse at 5 mg/kg, po; assay type: ADME, organism-based; design: dose 5 mg/kg, route oral; settings: in vivo
[16] = Half life in mouse at 5 mg/kg, ip; assay type: ADME, organism-based; settings: in vivo
[17] = Cmax in mouse at 5 mg/kg, ip; assay type: ADME, organism-based; design: dose 5 mg/kg, route intraperitoneal; settings: in vivo
[18] = Oral bioavailability in mouse at 5 mg/kg; assay type: ADME, organism-based; settings: in vivo
[19] = Half life in mouse at 5 mg/kg, po; assay type: ADME, organism-based; settings: in vivo
[20] = Bioavailability in mouse at 5 mg/kg, ip; assay type: ADME, organism-based; settings: in vivo
[21] = Half life in mouse at 5 mg/kg, iv; assay type: ADME, organism-based; settings: in vivo
[22] = Oral bioavailability in mouse xenografted with human A2780 cells at 90 mg/kg daily administered for 7 consecutive days; assay type: ADME, organism-based; settings: in vivo
[23] = test system: A2780; assay: Antitumor activity against human A2780 cells xenografted in mouse assessed as tumor growth inhibition at 90 mg/kg, po daily administered for 7 consecutive days relative to control; assay type: functional; settings: read-out: TGI
[24] = Half life in mouse xenografted with human A2780 cells at 90 mg/kg, po daily administered for 7 consecutive days; assay type: ADME, organism-based; settings: in vivo
[25] = test system: MDA-MB-231; assay: Antiproliferative activity against human MDA-MB-231 cells after 7 days by cell titer-glo assay; assay type: functional, cell-based; settings: MDA-MB-231, 168 h

SMILES: c1nc2nc(Nc3ccc(N4CCOCC4)cc3)nc(NC3CCCCC3)c2[nH]1 [REVERSINE]
- AUC at 96 h [1]: 0.786 ng·h/mL
- inhibition in vivo at 30 mg/kg [2]: 49%
- inhibition in vivo at 150 mg/kg [3]: 74%
- inhibition in vivo at 150 mg/kg [4]: 63%

SMILES: CC(C)(C)Nc1nc(Nc2ccc(C(N)=O)cc2)cc(N)c1C#N
- inhibition in vivo at 100 mg/kg [9]: 47%

SMILES: O=C1c2ccccc2-c2n[nH]c3cccc1c23
- IC50 [11]: 98 nM

SMILES: COc1cc(-c2cnn(C)c2)ccc1Nc1ncc2ccnc(N[C@@H](C)C(C)(C)C)c2n1
- inhibition in vivo at 100 mg/kg [13]: > 80%

SMILES: CCc1cccc(CC)c1NC(=O)c1ccn2c1CCc1cnc(Nc3ccc(N4CCN(C)CC4)cc3OC)nc1-2
- Cmax [14]: 3060 nM
- Cmax [15]: 188 nM
- half-life [16]: 3.4 h
- Cmax [17]: 629 nM
- bioavailability [18]: 45.2%
- half-life [19]: 3.9 h
- bioavailability [20]: 90.3%
- half-life [21]: 2.9 h

SMILES: CC(C)CNc1nc(-c2cccc3ncccc23)cn2c(-c3ccc(C(=O)NC4CC4)cc3)cnc12
- IC50 [11]: 9 nM

SMILES: CCc1cccc(CC)c1NC(=O)c1nn(C)c2c1CCc1cnc(Nc3ccc(C(=O)NC4CCN(C)CC4)cc3OC(F)(F)F)nc1-2
- bioavailability [22]: 37.9%
- inhibition in vivo at 90 mg/kg [23]: 53%
- half-life [24]: 8 h

The next lines start with the values.

- inhibition [5]: > 40%
- inhibition [6]: > 40%
- inhibition [7]: > 40%
- inhibition [8]: > 40%
SMILES: COc1cc(OC2CCN(C)CC2)ccc1Nc1ncc2c(n1)n(C1CCCC1)c(=O)n2C

- IC50 [10]: 5.5 nM
- Ki [10]: < 0.5 nM
SMILES: Cc1nc(N2CCOCC2)ccc1Nc1nc(NC(C)(C)CO)c2c(C#N)c[nH]c2n1

- IC50 [12]: 50 nM
SMILES: COc1cc(N2CCC(O)CC2)ccc1Nc1nc(Nc2ccccc2S(=O)(=O)C(C)C)c2nc[nH]c2n1

- IC50 [10]: 2.5 nM
- Ki [10]: < 0.5 nM
- IC50 [25]: 2 to 6 nM
SMILES: Cc1nc(N2CCOCC2)ccc1Nc1nc(NC2CCOCC2)c2c(C#N)c[nH]c2n1

— ChEMBL document CHEMBL4346725, “Molecular design and anticancer activities of small-molecule monopolar spindle 1 inhibitors: A Medicinal chemistry perspective” (Eur J Med Chem, 2019)
